Source: patent US8604016B2, “Heterocyclic inhibitors of glutaminase” (Calithera Biosciences Inc., priority 2011, dated 2013)
Where two headings read alike, the source gives them in different places.

Biological target: recombinant form of Glutaminase 1 (GAC) (Homo sapiens, UniProt O94925)
Experiment: Recombinant Enzyme Assay (GAC coupled to GDH, NADH absorbance, no preincubation)
Assay type: biochemical
Conditions: no preincubation
Procedure: Enzymatic reaction was started with the addition of 50 μL of enzyme solution (50 mM Tris-HCl pH 8.0, 0.2 mM EDTA, 150 mM K2HPO4, 0.1 mg/ml BSA, 1 mM DTT, 10 ppm antifoam, 4 units/ml GDH, 4 mM adenosine diphosphate, and 4 nM GAC) and read in a Molecular Devices M5 plate reader at 20° C. The plate reader was configured to read absorbance (λ=340 nm) in kinetic mode for 15 minutes. Data was recorded as milli-absorbance units per minute and slopes were compared to a control compound and a DMSO-only control on the same plate. Compounds with slopes less than the DMSO control were considered inhibitors and plate variability was assessed using the control compound.

[1] = read-out: GAC Delta N2 IC50 no preinc

Row | IC50 [1] [nM] | IC50 (read-out: GAC Delta N2 IC50 no) [nM] | Compound
1 | 100 | – | Cc1nccn1Cc1cccc(CC(=O)Nc2nnc(CCCCc3nnc(NC(=O)Cc4cccc(Cn5ccnc5C)c4)s3)s2)c1 [Compound 296]
2 | > 50000 | – | C[C@H](N)C(=O)Nc1nnc(CCSCCc2nnc(NC(=O)[C@H](C)N)s2)s1 [Compound 74]
3 | 13000 | – | CC(C)[C@H](NC(=O)OC(C)(C)C)C(=O)Nc1nnc(CCSCCc2nnc(NC(=O)Cc3ccccc3)s2)s1 [Compound 33]
4 | 2800 | – | CC(=O)OCC(C(=O)Nc1nnc(CCSCCc2nnc(NC(=O)C(COC(C)=O)c3ccccc3)s2)s1)c1ccccc1 (stereo not drawn) [Compound 14]
5 | > 20000 | – | O=C(Nc1nnc(CCSCCc2nnc(NC(=O)C3CCOCC3)s2)s1)C1CCOCC1 [Compound 108]
6 | 190 | – | O=C(Cc1ccccc1)Nc1nnc(CCCCc2nnc(NC(=O)C(CO)c3ccccc3)s2)s1 (stereo not drawn) [Compound 316]
7 | 900 | – | O=C(Nc1nnc(CCSCCc2nnc(NC(=O)[C@@H](O)c3ccccc3)s2)s1)[C@@H](O)c1ccccc1 [Compound 93]
8 | > 20000 | – | CC(C)(C)OC(=O)Nc1ccc(CC(=O)Nc2nnc(CCSCCc3nnc(NC(=O)Cc4ccc(NC(=O)OC(C)(C)C)cc4)s3)s2)cc1 [Compound 185]
9 | > 20000 | – | O=C(OCC(C(=O)Nc1nnc(CCCCc2nnc(NC(=O)C(COC(=O)C3CCN(C(=O)OCc4ccccc4)CC3)c3ccccc3)s2)s1)c1ccccc1)C1CCN(C(=O)OCc2ccccc2)CC1 (stereo not drawn) [Compound 301]
10 | 8300 | – | O=C(Nc1nnc(CCCCc2nnc(NC(=O)C3COc4ccccc4O3)s2)s1)C1COc2ccccc2O1 (stereo not drawn) [Compound 52]
11 | 7400 | – | O=C(Nc1nnc(CCCCc2nnc(NC(=O)C3(c4ccccc4)CCOCC3)s2)s1)C1(c2ccccc2)CCOCC1 [Compound 166]
12 | 740 | – | C=C(C(=O)Nc1nnc(CCCCc2nnc(NC(=O)C(COC(=O)CCN3CCOCC3)c3ccccc3)s2)s1)c1ccccc1 (stereo not drawn) [Compound 281]
13 | > 20000 | – | C[C@@H](O)[C@H](N)C(=O)Nc1nnc(CCSCCc2nnc(NC(=O)[C@@H](N)[C@@H](C)O)s2)s1 [Compound 139]
14 | 1600 | – | COC(=O)C(C(=O)Nc1nnc(CCCCc2nnc(NC(=O)C(C(=O)OC)c3ccccc3)s2)s1)c1ccccc1 (stereo not drawn) [Compound 220]
15 | 1200 | – | O=C(Nc1nnc(CCCCc2nnc(NC(=O)C(OCCO)c3ccccc3)s2)s1)C(OCCO)c1ccccc1 (stereo not drawn) [Compound 252]
16 | 3700 | – | O=C(Nc1nnc(CCSCCc2nnc(NC(=O)C3CCCC3)s2)s1)C1CCCC1 [Compound 40]
17 | 1500 | – | O=C(CC1CC1)Nc1nnc(CCCCc2nnc(NC(=O)CC3CC3)s2)s1 [Compound 85]
18 | 1400 | – | O=C(CCN1CCOCC1)OC(C(=O)Nc1nnc(CCCCc2nnc(NC(=O)C(O)c3cccc(Cl)c3)s2)s1)c1cccc(Cl)c1 (stereo not drawn) [Compound 358]
19 | 140 | – | O=C(Cc1cccc(F)c1)Nc1nnc(CCCCc2nnc(NC(=O)Cc3cccc(F)c3)s2)s1 [Compound 273]
20 | > 50000 | – | CC(C)(C)C(=O)OCN(C(=O)Cc1ccccc1)c1nnc(CCSCCc2nnc(NC(=O)Cc3ccccc3)s2)s1 [Compound 15]
21 | > 50000 | – | CCCC(=O)OCN(C(=O)Cc1ccccc1)c1nnc(CCSCCc2nnc(N(COC(=O)CCC)C(=O)Cc3ccccc3)s2)s1 [Compound 8]
22 | 160 | – | COc1ccc(Cl)c(CC(=O)Nc2nnc(CCCCc3nnc(NC(=O)Cc4ccccc4)s3)s2)c1F [Compound 343]
23 | > 20000 | – | CC(O)(C(=O)Nc1nnc(CCSCCc2nnc(NC(=O)C(C)(O)C(F)(F)F)s2)s1)C(F)(F)F (stereo not drawn) [Compound 109]
24 | 230 | – | CN(C)c1ccc(CC(=O)Nc2nnc(CCSCCc3nnc(NC(=O)Cc4ccc(N(C)C)cc4)s3)s2)cc1 [Compound 162]
25 | 1700 | – | COCCOC(C(=O)Nc1nnc(CCCCc2nnc(NC(=O)C(OCCOC)c3ccccc3)s2)s1)c1ccccc1 (stereo not drawn) [Compound 203]
26 | 82 | – | O=C(Cc1ccccc1Br)Nc1nnc(CCCCc2nnc(NC(=O)Cc3ccccc3Br)s2)s1 [Compound 282]
27 | 24000 | – | CC(=O)OC(C(=O)Nc1nnc(CCCCc2nnc(NC(=O)C(OC(C)=O)c3ccccc3)s2)s1)c1ccccc1 (stereo not drawn) [Compound 173]

Row | IC50 [1] [nM] | IC50 (read-out: GAC Delta N2 IC50 no) [nM] | Compound
28 | 2800 | – | C[C@@H](O)C(=O)Nc1nnc(CCCCc2nnc(NC(=O)Cc3ccccc3)s2)s1 [Compound 322]
29 | > 20000 | – | NC(C(=O)Nc1nnc(CCSCCc2nnc(NC(=O)C(N)C3CCCC3)s2)s1)C1CCCC1 (stereo not drawn) [Compound 125]
30 | > 50000 | – | O=C(Nc1nnc(CCSCCc2nnc(NC(=O)C3(C(F)(F)F)CC3)s2)s1)C1(C(F)(F)F)CC1 [Compound 59]
31 | > 20000 | – | CC1(C)O[C@H](C(=O)Nc2nnc(CCCCc3nnc(NC(=O)[C@H]4OC(C)(C)O[C@@H]4c4ccccc4)s3)s2)[C@@H](c2ccccc2)O1 [Compound 224]
32 | > 50000 | – | CC(C)[C@H](NC(=O)OC(C)(C)C)C(=O)Nc1nnc(CCSCCc2nnc(NC(=O)[C@@H](NC(=O)OC(C)(C)C)C(C)C)s2)s1 [Compound 34]
33 | 220 | – | O=C(Cc1ccccc1)Nc1nnc(CCSCCc2nnc(NC(=O)Cc3cccnc3)s2)s1 [Compound 347]
34 | > 20000 | – | O=C(CC1CCCNC1)Nc1nnc(CCSCCc2nnc(NC(=O)CC3CCCNC3)s2)s1 (stereo not drawn) [Compound 124]
35 | 1200 | – | O=C(Nc1nnc(CCCCc2nnc(NC(=O)C(O)c3cccc(F)c3F)s2)s1)C(O)c1cccc(F)c1F (stereo not drawn) [Compound 211]
36 | 7400 | – | O=C(Nc1nnc(CCCc2nnc(NC(=O)C(O)Cc3ccccc3)s2)s1)C(O)Cc1ccccc1 (stereo not drawn) [Compound 170]
37 | > 20000 | – | CC(C)(C)OC(=O)NC(C(=O)Nc1nnc(CCSCCc2nnc(NC(=O)C(NC(=O)OC(C)(C)C)C3CCCC3)s2)s1)C1CCCC1 (stereo not drawn) [Compound 110]
38 | 300 | – | Nc1ccc(CC(=O)Nc2nnc(CCSCCc3nnc(NC(=O)Cc4ccc(N)cc4)s3)s2)cc1 [Compound 195]
39 | 2800 | – | COCOCCOC(C(=O)Nc1nnc(CCCCc2nnc(NC(=O)C(OCCOCOC)c3ccccc3)s2)s1)c1ccccc1 (stereo not drawn) [Compound 251]
40 | 1200 | – | CC(=O)Nc1nnc(CCSCCc2nnc(NC(=O)Cc3ccccc3)s2)s1 [Compound 25]
41 | 4500 | – | C=CCCC(=O)Nc1nnc(CCSCCc2nnc(NC(=O)CCC=C)s2)s1 [Compound 18]
42 | 7000 | – | O=C(OCC(C(=O)Nc1nnc(CCCCc2nnc(NC(=O)C(COC(=O)C3CCNCC3)c3ccccc3)s2)s1)c1ccccc1)C1CCNCC1 (stereo not drawn) [Compound 302]
43 | > 50000 | – | O=C(OCCCN1CCOCC1)OCN(C(=O)Cc1ccccc1)c1nnc(CCSCCc2nnc(N(COC(=O)OCCCN3CCOCC3)C(=O)Cc3ccccc3)s2)s1 [Compound 28]
44 | 380 | – | O=C(Nc1nnc(CCCCc2nnc(NC(=O)C(O)(CO)c3ccccc3)s2)s1)C(O)(CO)c1ccccc1 (stereo not drawn) [Compound 278]
45 | > 50000 | – | O=C(Nc1nnc(CCCCc2nnc(NC(=O)C3CC4CCC3C4)s2)s1)C1CC2CCC1C2 (stereo not drawn) [Compound 55]
46 | 600 | – | O=C(Cc1ccccn1)Nc1nnc(CCSCCc2nnc(NC(=O)Cc3ccccn3)s2)s1 [Compound 308]
47 | > 50000 | – | CCCC(=O)OCN(C(=O)Cc1ccccc1)c1nnc(CCSCCc2nnc(NC(=O)Cc3ccccc3)s2)s1 [Compound 7]
48 | 16000 | – | O=C(Nc1nnc(CCSCCc2nnc(NC(=O)c3cc4ccccc4o3)s2)s1)c1cc2ccccc2o1 [Compound 215]
49 | 13000 | – | O=C(Cc1cc2ccccc2s1)Nc1nnc(CCSCCc2nnc(NC(=O)Cc3cc4ccccc4s3)s2)s1 [Compound 207]
50 | 1800 | – | O=C(Nc1nnc(CCCCc2nnc(NC(=O)[C@H](O)c3ccccc3)s2)s1)[C@H](O)c1ccccc1 [Compound 80]
51 | 580 | – | CS(=O)(=O)c1ccc(CC(=O)Nc2nnc(CCSCCc3nnc(NC(=O)Cc4ccc(S(C)(=O)=O)cc4)s3)s2)cc1 [Compound 182]
52 | – | 480 | O=C(Cc1cccnc1)Nc1nnc(CCSCCc2nnc(NC(=O)Cc3cccnc3)s2)s1 [Compound 638]
53 | 12000 | – | CC1(C(=O)Nc2nnc(CCCCc3nnc(NC(=O)C4(C)CCCO4)s3)s2)CCCO1 (stereo not drawn) [Compound 123]
54 | 3900 | – | O=C(CC1CC1)Nc1nnc(CCSCCc2nnc(NC(=O)CC3CC3)s2)s1 [Compound 83]

Row | Compound | IC50 [1] [nM] | IC50 (read-out: GAC Delta N2 IC50 no) [nM]
55 | O=C(Cc1cccc(-n2ccnc2)c1)Nc1nnc(CCCCc2nnc(NC(=O)Cc3cccc(-n4ccnc4)c3)s2)s1 [Compound 363] | 65 | –
56 | O=C(Cc1ccc2ncccc2c1)Nc1nnc(CCSCCc2nnc(NC(=O)Cc3ccc4ncccc4c3)s2)s1 [Compound 268] | 600 | –
57 | CC(C(=O)Nc1nnc(CCCCc2nnc(NC(=O)C(C)c3ccccc3Cl)s2)s1)c1ccccc1Cl (stereo not drawn) [Compound 274] | 750 | –
58 | COc1ccc(C(=O)Nc2nnc(CCSCCc3nnc(NC(=O)c4ccc(OC)cc4)s3)s2)cc1 [Compound 3] | > 50000 | –
59 | COc1ccccc1CC(=O)Nc1nnc(CCSCc2nnc(NC(=O)Cc3ccccc3OC)s2)s1 [Compound 249] | 120 | –
60 | O=C(CN1C(=O)OC[C@@H]1c1ccccc1)Nc1nnc(CCSCCc2nnc(NC(=O)CN3C(=O)OC[C@@H]3c3ccccc3)s2)s1 [Compound 197] | 6900 | –
61 | COc1cccc(C(CO)C(=O)Nc2nnc(CCSCc3nnc(NC(=O)C(CO)c4cccc(OC)c4)s3)s2)c1 (stereo not drawn) [Compound 258] | 190 | –
62 | O=C(Cc1cccs1)Nc1nnc(CCSCc2nnc(NC(=O)Cc3cccs3)s2)s1 [Compound 237] | 200 | –
63 | COc1cccc(CC(=O)Nc2nnc(CCSCCc3nnc(NC(=O)Cc4cccc(OC)c4OC)s3)s2)c1OC [Compound 259] | 230 | –
64 | O=C(CN1C(=O)OC[C@H]1c1ccccc1)Nc1nnc(CCSCCc2nnc(NC(=O)CN3C(=O)OC[C@H]3c3ccccc3)s2)s1 [Compound 243] | 2700 | –
65 | O=C(CN1CCOCC1)Nc1nnc(CCSCCc2nnc(NC(=O)CN3CCOCC3)s2)s1 [Compound 12] | > 50000 | –
66 | O=C(Cc1cccc(Cn2cccn2)c1)Nc1nnc(CCCCc2nnc(NC(=O)Cc3cccc(Cn4cccn4)c3)s2)s1 [Compound 362] | 350 | –
